Test system: 323965-272-R-J2-PDC complex spheroid viability
Experiment: Anticancer human tumor 323965-272-R-J2-PDC patient-derived pancreatic carcinoma cell line growth inhibition [CLK]
Conditions: for IC50: curve of first compound; for viability, T/C: stronger effect = lower value
Method in brief: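 Multi-cell-type spheroids combined patient-derived tumor cells with HUVEC endothelial cells and human mesenchymal stem cells. Paired agents were dosed in half-log steps down from about clinical Cmax, or from 10 microM where Cmax was unknown.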
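Also: spheroids exposed to agents for seven days before readout.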
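For viability, T/C in this document: percent of DMSO vehicle control wells so 100% = untreated growth.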

CC(CO)NC(=O)c1cc(-c2ccc(Cl)cc2)nn(-c2cnn(C)c2)c1=O (configuration not stated) + CNC(=O)c1ccc(Nc2nc(OC3CCCC3)c3c(-c4ccc5nc(C)oc5c4)c[nH]c3n2)c(OC)c1
IC50 (second compound 0.0316 µM): > 10 µM | IC50 (second compound 0.1 µM): > 10 µM | IC50 (second compound 0.316 µM): > 10 µM | IC50 (second compound 1 µM): < 0.0316 µM | IC50 (second compound 3.16 µM): < 0.0316 µM | IC50 (second compound 10 µM): < 0.0316 µM | viability, T/C (second compound 0.0316 µM, first compound 0.0316 µM): 122% | viability, T/C (second compound 0.0316 µM, first compound 0.1 µM): 85.6% | viability, T/C (second compound 0.0316 µM, first compound 0.316 µM): 100% | viability, T/C (second compound 0.0316 µM, first compound 1 µM): 101% | viability, T/C (second compound 0.0316 µM, first compound 3.16 µM): 102% | viability, T/C (second compound 0.0316 µM, first compound 10 µM): 103% | viability, T/C (second compound 0.1 µM, first compound 0.0316 µM): 81.2% | viability, T/C (second compound 0.1 µM, first compound 0.1 µM): 80.5% | viability, T/C (second compound 0.1 µM, first compound 0.316 µM): 76.5% | viability, T/C (second compound 0.1 µM, first compound 1 µM): 73.7% | viability, T/C (second compound 0.1 µM, first compound 3.16 µM): 76.9% | viability, T/C (second compound 0.1 µM, first compound 10 µM): 72.1% | viability, T/C (second compound 0.316 µM, first compound 0.0316 µM): 60% | viability, T/C (second compound 0.316 µM, first compound 0.1 µM): 67.4% | viability, T/C (second compound 0.316 µM, first compound 0.316 µM): 67.1% | viability, T/C (second compound 0.316 µM, first compound 1 µM): 57.8% | viability, T/C (second compound 0.316 µM, first compound 3.16 µM): 61% | viability, T/C (second compound 0.316 µM, first compound 10 µM): 53.4% | viability, T/C (second compound 1 µM, first compound 0.0316 µM): 50.8% | viability, T/C (second compound 1 µM, first compound 0.1 µM): 41.2% | viability, T/C (second compound 1 µM, first compound 0.316 µM): 42.2% | viability, T/C (second compound 1 µM, first compound 1 µM): 51.1% | viability, T/C (second compound 1 µM, first compound 3.16 µM): 51.6% | viability, T/C (second compound 1 µM, first compound 10 µM): 48.7% | viability, T/C (second compound 3.16 µM, first compound 0.0316 µM): 41.8% | viability, T/C (second compound 3.16 µM, first compound 0.1 µM): 42.5% | viability, T/C (second compound 3.16 µM, first compound 0.316 µM): 40.1% | viability, T/C (second compound 3.16 µM, first compound 1 µM): 35.5% | viability, T/C (second compound 3.16 µM, first compound 3.16 µM): 44.4% | viability, T/C (second compound 3.16 µM, first compound 10 µM): 47.1% | viability, T/C (second compound 10 µM, first compound 0.0316 µM): 43.2% | viability, T/C (second compound 10 µM, first compound 0.1 µM): 40.4% | viability, T/C (second compound 10 µM, first compound 0.316 µM): 36.8% | viability, T/C (second compound 10 µM, first compound 1 µM): 43.1% | viability, T/C (second compound 10 µM, first compound 3.16 µM): 41.5% | viability, T/C (second compound 10 µM, first compound 10 µM): 41.4%

From PubChem BioAssay AID2060619 (Molecular Pharmacology Branch, DTP, NCI, 2025)
